Test results reported in patent US9255101B2 (BIOPROJECT, priority 2012, dated 2016).
Where a name gives a salt, the structure may show the parent alone.

These compounds were tested against human H4 receptor (Homo sapiens, UniProt Q9H3N8) (assay: biochemical).
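Note: radioligand displacement of a [3H]-labelled ligand from membranes of CHO cells stably expressing human H4 receptor, bound radioactivity counted on filters by liquid scintillation.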

Sequence of human H4 receptor (Q9H3N8 whole entry): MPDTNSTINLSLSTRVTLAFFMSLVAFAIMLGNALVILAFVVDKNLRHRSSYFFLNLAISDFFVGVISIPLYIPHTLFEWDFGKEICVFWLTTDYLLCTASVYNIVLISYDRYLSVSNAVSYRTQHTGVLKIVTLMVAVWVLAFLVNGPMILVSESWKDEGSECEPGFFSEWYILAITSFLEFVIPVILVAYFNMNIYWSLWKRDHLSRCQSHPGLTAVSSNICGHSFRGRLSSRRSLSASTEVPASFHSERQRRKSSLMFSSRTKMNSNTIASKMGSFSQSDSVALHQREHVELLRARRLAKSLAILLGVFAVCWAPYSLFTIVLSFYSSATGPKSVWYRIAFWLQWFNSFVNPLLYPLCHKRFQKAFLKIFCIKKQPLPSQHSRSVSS

Structure (SMILES) | Ki [nM]
CN1CCC(OC2c3ccccc3CCn3cc(-c4ccc(CCN(C)C(=O)OC(C)(C)C)cc4)nc32)CC1 (centres unmarked) [Example 197, methyl-(2-{4-[4-(1-methylpiperidin-4-yloxy)-9,10-dihydro-4H-3,10a-diaza-benzo[f]azulen-2-yl]-phenyl}-ethyl)-carbamic acid tert-butyl ester] | < 30
Cc1c(C(O)C(C)C)nc2n1CCc1ccccc1C2OC1CCN(C)CC1 (centres unmarked) [Example 210, 2-methyl-1-[1-methyl-4-(1-methylpiperidin-4-yloxy)-9,10-dihydro-4H-3,10a-diaza-benzo[f]azulen-2-yl]-propan-1-ol, oxalate] | < 1000
CN1CCC(OC2c3ccccc3CCn3cc(-c4ccc(CNC(=O)OC(C)(C)C)cc4)nc32)CC1 (centres unmarked) [Example 115, {4-[4-(1-methylpiperidin-4-yloxy)-9,10-dihydro-4H-3,10a-diaza-benzo[f]azulen-2-yl]-benzyl}-carbamic acid tert-butyl ester] | < 300
CN1CCC(OC2c3ccccc3CCn3cc(-c4ccc(CO)cc4)nc32)CC1 (centres unmarked) [Example 18, {4-[4-(1-methylpiperidin-4-yloxy)-9,10-dihydro-4H-3,10a-diaza-benzo[f]azulen-2-yl]-phenyl}-methanol] | < 1000
Cc1c(-c2ccc(C3=CCCC3)cc2)nc2n1CCc1ccccc1C2OC1CCN(C)CC1 (centres unmarked) [Example 169, 2-(4-cyclopent-1-enylphenyl)-1-methyl-4-(1-methylpiperidin-4-yloxy)-9,10-dihydro-4H-3,10a-diaza-benzo[f]azulene] | < 30
CN1CCC(OC2c3ccccc3CCn3cc(CCC4CCCCC4)nc32)CC1 (centres unmarked) [Example 95, 2-(2-cyclohexylethyl)-4-(1-methylpiperidin-4-yloxy)-9,10-dihydro-4H-3,10a-diaza-benzo[f]azulene oxalate] | < 30
CN1CCC(OC2c3ccccc3CCn3cc(-c4ccncc4)nc32)CC1 (centres unmarked) [Example 44, 4-(1-methylpiperidin-4-yloxy)-2-pyridin-4-yl-9,10-dihydro-4H-3,10a-diaza-benzo[f]azulene oxalate] | < 1000
C=Cc1cn2c(n1)C(OC1CCN(C)CC1)c1ccccc1CC2 (centres unmarked) [Example 9, 4-(1-methylpiperidin-4-yloxy)-2-vinyl-9,10-dihydro-4H-3,10a-diaza-benzo[f]azulene oxalate] | < 1000
Cc1ccc(-c2cn3c(n2)C(OC2CCN(C)CC2)c2ccccc2CC3)o1 (centres unmarked) [Example 51, 2-(5-methylfuran-2-yl)-4-(1-methylpiperidin-4-yloxy)-9,10-dihydro-4H-3,10a-diaza-benzo[f]azulene oxalate] | < 300
CCOC(=O)c1nc2n(c1C)CCc1ccccc1C2OC1CCN(C)CC1 (centres unmarked) [Example 118, 1-methyl-4-(1-methylpiperidin-4-yloxy)-9,10-dihydro-4H-3,10a-diaza-benzo[f]azulene-2-carboxylic acid ethyl ester] | < 1000
Ic1nc2n(c1I)CCc1ccccc1C2OC1CN2CCC1CC2 (centres unmarked) [Example 271, 4-(1-azabicyclo[2.2.2]oct-3-yloxy)-1,2-diiodo-9,10-dihydro-4H-3,10a-diaza-benzo[f]azulene oxalate] | < 1000
CN1CCC(OC2c3ccccc3CCn3cc(C=CC(=O)OC(C)(C)C)nc32)CC1 (centres unmarked) [Example 53, 3-[4-(1-methylpiperidin-4-yloxy)-9,10-dihydro-4H-3,10a-diaza-benzo[f]azulen-2-yl]-acrylic acid tert-butyl ester oxalate] | < 1000
CN1CCC(OC2c3ccccc3CCn3cc(SCCNC(=O)OC(C)(C)C)nc32)CC1 (centres unmarked) [Example 84, {2-[4-(1-methylpiperidin-4-yloxy)-9,10-dihydro-4H-3,10a-diaza-benzo[f]azulen-2-ylsulfanyl]-ethyl}-carbamic acid tert-butyl ester oxalate] | < 300
CN1CCC(OC2c3ccccc3CCn3c2nc(-c2ccc(NC(=O)OC(C)(C)C)cc2)c3Cl)CC1 (centres unmarked) [Example 141, {4-[1-chloro-4-(1-methylpiperidin-4-yloxy)-9,10-dihydro-4H-3,10a-diaza-benzo[f]azulen-2-yl]-phenyl}-carbamic acid tert-butyl ester] | < 30
CN1CCC(OC2c3ccccc3CCn3cc(-c4ccc(CN5CCCCC5=O)cc4)nc32)CC1 (centres unmarked) [Example 185, 1-{4-[4-(1-methylpiperidin-4-yloxy)-9,10-dihydro-4H-3,10a-diaza-benzo[f]azulen-2-yl]benzyl}-piperidin-2-one] | < 300
Cc1c(-c2ccc(N3C(=O)OCC3Cc3ccccc3)cc2)nc2n1CCc1ccccc1C2OC1CCN(C)CC1 (centres unmarked) [Example 176, 4-benzyl-3-{4-[1-methyl-4-(1-methylpiperidin-4-yloxy)-9,10-dihydro-4H-3,10a-diaza-benzo[f]azulen-2-yl]-phenyl}-oxazolidin-2-one] | < 30
CN1CCC(OC2c3ccccc3CCn3c2nc(I)c3I)C1 (centres unmarked) [Example 268, 1,2-diiodo-4-(1-methylpyrrolidin-3-yloxy)-9,10-dihydro-4H-3,10a-diaza-benzo[f]azulene] | < 300
CC(C)Cc1cn2c(n1)C(OC1CCN(C)CC1)c1ccccc1CC2 (centres unmarked) [Example 109, 2-isobutyl-4-(1-methylpiperidin-4-yloxy)-9,10-dihydro-4H-3,10a-diaza-benzo[f]azulene oxalate] | < 300

Structure (SMILES) | Ki [nM]
Cc1c(-c2ccc(C3=CCCCCC3)cc2)nc2n1CCc1ccccc1C2OC1CCN(C)CC1 (centres unmarked) [Example 171, 2-(4-cyclohept-1-enylphenyl)-1-methyl-4-(1-methylpiperidin-4-yloxy)-9,10-dihydro-4H-3,10a-diaza-benzo[f]azulene] | < 30
Cc1c(-c2ccc(CCS(C)(=O)=O)cc2)nc2n1CCc1ccccc1C2OC1CCN(C)CC1 (centres unmarked) [Example 159, 2-[4-(2-methanesulfonylethyl)-phenyl]-1-methyl-4-(1-methylpiperidin-4-yloxy)-9,10-dihydro-4H-3,10a-diaza-benzo[f]azulene] | < 30
CN1CCC(OC2c3ccccc3CCn3cc(Sc4ccccc4)nc32)CC1 (centres unmarked) [Example 73, 4-(1-methylpiperidin-4-yloxy)-2-phenylsulfanyl-9,10-dihydro-4H-3,10a-diaza-benzo[f]azulene oxalate] | < 300
CN1CCC(OC2c3ccccc3CCn3cc(-c4ccc(CN5CCN(C(C)(C)C)C5=O)cc4)nc32)CC1 (centres unmarked) [Example 191, 1-tertbutyl-3-{4-[4-(1-methylpiperidin-4-yloxy)-9,10-dihydro-4H-3,10a-diaza-benzo[f]azulen-2-yl]benzyl}-imidazolidin-2-one] | < 300
CN1CCC(OC2c3ccccc3CCn3cc(-c4ccc(S(C)(=O)=O)cc4)nc32)CC1 (centres unmarked) [Example 17, 2-(4-methanesulfonylphenyl)-4-(1-methylpiperidin-4-yloxy)-9,10-dihydro-4H-3,10a-diaza-benzo[f]azulene] | < 300
CN1CCC(OC2c3ccccc3CCn3cc(-c4ccc(C(=O)NCCO)cc4)nc32)CC1 (centres unmarked) [Example 212, N-(2-hydroxyethyl)-4-[4-(1-methylpiperidin-4-yloxy)-9,10-dihydro-4H-3,10a-diaza-benzo[f]azulen-2-yl]benzamide] | < 1000
Cc1nc2n(c1-c1ccccc1)CCc1ccccc1C2OC1CCN(C)CC1 (centres unmarked) [Example 123, 2-methyl-4-(1-methylpiperidin-4-yloxy)-1-phenyl-9,10-dihydro-4H-3,10a-diaza-benzo[f]azulene oxalate] | < 300
COCCC(=O)NCc1ccc(-c2cn3c(n2)C(OC2CCN(C)CC2)c2ccccc2CC3)cc1 (centres unmarked) [Example 138, 3-methoxy-N-{4-[4-(1-methylpiperidin-4-yloxy)-9,10-dihydro-4H-3,10a-diaza-benzo[f]azulen-2-yl]-benzyl}-propionamide] | < 1000
COC(=O)CSc1ccc(-c2nc3n(c2C)CCc2ccccc2C3OC2CCN(C)CC2)cc1 (centres unmarked) [Example 165, {4-[1-methyl-4-(1-methylpiperidin-4-yloxy)-9,10-dihydro-4H-3,10a-diaza-benzo[f]azulen-2-yl]-phenylsulfanyl}-acetic acid methyl ester oxalate] | < 30
CN1CCC(OC2c3ccccc3CCn3cc(-c4cccnc4)nc32)CC1 (centres unmarked) [Example 45, 4-(1-methylpiperidin-4-yloxy)-2-pyridin-3-yl-9,10-dihydro-4H-3,10a-diaza-benzo[f]azulene oxalate] | < 1000
CN1CCC(OC2c3ccccc3CCn3cc(-c4ccccc4CO)nc32)CC1 (centres unmarked) [Example 179, {2-[4-(1-methylpiperidin-4-yloxy)-9,10-dihydro-4H-3,10a-diaza-benzo[f]azulen-2-yl]-phenyl}-methanol oxalate] | < 300
CN1CCC(OC2c3ccccc3CCn3cc(-c4cncs4)nc32)CC1 (centres unmarked) [Example 48, 4-(1-methylpiperidin-4-yloxy)-2-thiazol-5-yl-9,10-dihydro-4H-3,10a-diaza-benzo[f]azulene oxalate] | < 1000
CN1CCC(OC2c3ccccc3CCn3cc(-c4ccc(CCNC(=O)OC(C)(C)C)cc4)nc32)CC1 (centres unmarked) [Example 196] | < 300
CN1CCC(OC2c3ccccc3CCn3c2nc(-c2ccccc2)c3C#N)CC1 (centres unmarked) [Example 235, 4-(1-methylpiperidin-4-yloxy)-2-phenyl-9,10-dihydro-4H-3,10a-diaza-benzo[f]azulene-1-carbonitrile] | < 30
CN1CCC(OC2c3ccccc3CCn3cc(-c4ccc(CCO)cc4)nc32)CC1 (centres unmarked) [Example 192, 2-{4-[4-(1-methylpiperidin-4-yloxy)-9,10-dihydro-4H-3,10a-diaza-benzo[f]azulen-2-yl]-phenyl}-ethanol] | < 300
CN(C)Cc1ccc(-c2cn3c(n2)C(OC2CCN(C)CC2)c2ccccc2CC3)cc1 (centres unmarked) [Example 113, dimethyl-{4-[4-(1-methylpiperidin-4-yloxy)-9,10-dihydro-4H-3,10a-diaza-benzo[f]azulen-2-yl]-benzyl}-amine] | < 300
Cc1c(-c2ccc(NC(=O)NC34CC5CC(CC(C5)C3)C4)cc2)nc2n1CCc1ccccc1C2OC1CCN(C)CC1 (centres unmarked) [Example 213, 1-adamantan-1-yl-3-{4-[1-methyl-4-(1-methylpiperidin-4-yloxy)-9,10-dihydro-4H-3,10a-diaza-benzo[f]azulen-2-yl]-phenyl}-urea] | < 30
